The source of these data is US20090270444A1, “1,7-Naphthyridines” (priority 2004, published 2009).

Common to all, as to format: biochemical
In one assay the target is T1, Human recombinant PDE4B (Homo sapiens, UniProt Q07343).
T1 construct: made in house; host or cells: Saccharomyces cerevisiae strain GL62
In words: PDE4B IMAP fluorescence polarisation assay. Particulars: human recombinant PDE4B (HSPDE4B2B); accurate to within ±0.5; read-out: PDE4B mean pIC50 (converted). From the text:
Human recombinant PDE4B, in particular the 2B splice variant thereof (HSPDE4B2B), is disclosed in WO 94/20079 and also in M. M. McLaughlin et al., “A low Km, rolipram-sensitive, cAMP-specific phosphodiesterase from human brain: cloning and expression of cDNA, biochemical characterisation of recombinant protein, and tissue distribution of mRNA”, J. Biol. Chem., 1993, 268, 6470-6476. For example, in Example 1 of WO 94/20079, human recombinant PDE4B is described as being expressed in the PDE-deficient yeast Saccharomyces cerevisiae strain GL62, e.g. after induction by addition of 150 uM CuSO4, and 100,000×g supernatant fractions of yeast cell lysates are described for use in the harvesting of PDE4B enzyme.
(§1) The ability of compounds to inhibit PDE catalytic activity was determined by IMAP Fluorescence Polarisation (FP) assay (Molecular Devices Ltd code: R8062) in 384-well format. Test compounds (small volume, e.g. 0.5 μl, of solution in DMSO) were preincubated at ambient temperature in black 384-well microtitre plates (supplier: NUNC, code 262260) with PDE enzyme in 10 mM Tris-HCl buffer pH 7.2, 10 mM MgCl2, 0.1% (w/v) bovine serum albumin, 0.05% NaN3 for 10-30 minutes. The enzyme level was set so that reaction was linear throughout the incubation.
For the PDE3, PDE4B and PDE4D assays Fluorescein adenosine 3′,5′-cyclic phosphate (Molecular Devices Ltd code: R7091) was added to give ˜40 nM final concentration. For the PDE5 and PDE6 assays Fluorescein guanosine 3′,5′-cyclic phosphate (Molecular Devices Ltd code: R7090) was added to give ˜40 nM final concentration. Plates were mixed on an orbital shaker for 10 seconds and incubated at ambient temperature for 40 minutes. IMAP binding reagent (Molecular Devices Ltd code: R7207) was added (60 μl of a 1 in 400 dilution in binding buffer of the kit stock solution) to terminate the assay. […] The FP ratio of parallel to perpendicular light was measured using an Analyst™ plate reader (from Molecular Devices Ltd). […] Curves were analysed using ActivityBase and XLfit (ID Business Solutions Limited). Results were expressed as pIC50 values.
On the technique in general: Polarisation of emitted light reports the rotation of a fluorescent probe.

Another assay concerns the target Human recombinant PDE4D (Homo sapiens, UniProt Q08499). As to the kind of experiment: PDE4D IMAP fluorescence polarisation assay. Particulars: human recombinant PDE4D (HSPDE4D3A); accurate to within ±0.5; read-out: PDE4D mean pIC50 (converted). On the procedure: Human recombinant PDE4D (HSPDE4D3A) is disclosed in P. A. Baecker et al., “Isolation of a cDNA encoding a human rolipram-sensitive cyclic AMP phoshodiesterase (PDE IVD)”, Gene, 1994, 138, 253-256.
as §1
(§2) For the PDE3, PDE4B and PDE4D assays Fluorescein adenosine 3′,5′-cyclic phosphate (Molecular Devices Ltd code: R7091) was added to give ˜40 nM final concentration. For the PDE5 and PDE6 assays Fluorescein guanosine 3′,5′-cyclic phosphate (Molecular Devices Ltd code: R7090) was added to give ˜40 nM final concentration. Plates were mixed on an orbital shaker for 10 seconds and incubated at ambient temperature for 40 minutes. IMAP binding reagent (Molecular Devices Ltd code: R7207) was added (60 μl of a 1 in 400 dilution in binding buffer of the kit stock solution) to terminate the assay. Plates were allowed to stand at ambient temperature for 1 hour. The FP ratio of parallel to perpendicular light was measured using an Analyst™ plate reader (from Molecular Devices Ltd). […] Curves were analysed using ActivityBase and XLfit (ID Business Solutions Limited). Results were expressed as pIC50 values.

The target of another assay is Human recombinant PDE5 (Homo sapiens, UniProt O76074). In words: PDE5 IMAP fluorescence polarisation assay. Particulars: accurate to within ±0.5, read-out: PDE5 mean pIC50 (converted). On the procedure: Human recombinant PDE5 is disclosed in K. Loughney et al., “Isolation and characterisation of cDNAs encoding PDE5A, a human cGMP-binding, cGMP-specific 3′,5′-cyclic nucleotide phosphodiesterase”, Gene, 1998, 216, 139-147.
as §1, §2

The target of another assay is T2, PDE6 (Bos taurus, UniProt P11541+P23439).
T2 construct: PDE6 may be purified from bovine retina; from tissue; host or cells: bovine retina
T2 sequence (P11541 2-856 limits assumed): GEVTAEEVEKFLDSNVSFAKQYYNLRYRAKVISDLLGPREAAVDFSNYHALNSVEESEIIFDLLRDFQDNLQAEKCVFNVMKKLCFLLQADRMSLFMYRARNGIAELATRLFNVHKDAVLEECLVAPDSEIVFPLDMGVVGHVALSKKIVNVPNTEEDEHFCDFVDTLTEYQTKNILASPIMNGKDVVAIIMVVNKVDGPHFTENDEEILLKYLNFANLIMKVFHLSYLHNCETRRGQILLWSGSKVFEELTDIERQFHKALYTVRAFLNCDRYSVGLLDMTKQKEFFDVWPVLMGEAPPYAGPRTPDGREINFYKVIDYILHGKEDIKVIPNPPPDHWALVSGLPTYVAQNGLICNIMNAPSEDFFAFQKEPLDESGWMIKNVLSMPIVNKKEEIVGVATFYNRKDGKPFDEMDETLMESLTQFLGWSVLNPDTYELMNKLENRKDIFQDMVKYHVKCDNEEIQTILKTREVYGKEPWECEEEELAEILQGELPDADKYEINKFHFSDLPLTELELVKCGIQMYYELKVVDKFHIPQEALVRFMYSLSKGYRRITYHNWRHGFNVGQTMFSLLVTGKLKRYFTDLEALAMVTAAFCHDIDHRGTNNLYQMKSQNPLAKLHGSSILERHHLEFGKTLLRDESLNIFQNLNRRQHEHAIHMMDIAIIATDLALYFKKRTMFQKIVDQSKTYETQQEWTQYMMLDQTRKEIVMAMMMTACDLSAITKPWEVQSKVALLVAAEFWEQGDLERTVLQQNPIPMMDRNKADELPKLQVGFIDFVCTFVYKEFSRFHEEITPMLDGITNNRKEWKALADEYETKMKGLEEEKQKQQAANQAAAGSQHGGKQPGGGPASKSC
T2 sequence (P23439 2-850 limits assumed): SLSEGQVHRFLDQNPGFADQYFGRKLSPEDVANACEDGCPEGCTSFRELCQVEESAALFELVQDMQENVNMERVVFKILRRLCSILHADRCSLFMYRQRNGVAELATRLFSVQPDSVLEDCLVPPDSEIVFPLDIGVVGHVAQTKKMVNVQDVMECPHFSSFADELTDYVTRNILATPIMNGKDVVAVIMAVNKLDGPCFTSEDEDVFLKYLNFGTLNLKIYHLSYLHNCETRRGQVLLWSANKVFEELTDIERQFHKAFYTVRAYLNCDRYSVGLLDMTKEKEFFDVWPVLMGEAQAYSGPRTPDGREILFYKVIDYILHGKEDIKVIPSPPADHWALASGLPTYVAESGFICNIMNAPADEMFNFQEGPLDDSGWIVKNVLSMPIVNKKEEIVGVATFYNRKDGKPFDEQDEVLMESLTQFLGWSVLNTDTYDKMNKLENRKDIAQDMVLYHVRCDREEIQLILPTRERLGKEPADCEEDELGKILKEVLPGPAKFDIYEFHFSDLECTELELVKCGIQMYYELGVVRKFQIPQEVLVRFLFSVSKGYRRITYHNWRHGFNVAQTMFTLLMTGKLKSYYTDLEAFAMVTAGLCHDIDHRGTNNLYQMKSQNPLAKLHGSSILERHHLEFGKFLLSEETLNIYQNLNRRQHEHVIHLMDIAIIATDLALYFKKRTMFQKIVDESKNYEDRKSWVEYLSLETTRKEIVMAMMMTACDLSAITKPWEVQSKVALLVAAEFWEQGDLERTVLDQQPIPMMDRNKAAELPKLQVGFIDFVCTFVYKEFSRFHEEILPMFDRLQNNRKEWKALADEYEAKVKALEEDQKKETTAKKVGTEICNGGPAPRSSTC
In words: PDE6 IMAP fluorescence polarisation assay. To be noted: PDE6 from bovine retina; accurate to within ±0.5; read-out: PDE6 mean pIC50 (converted).
Source text: PDE6 may be purified from bovine retina as described by: P. Catty and P. Deterre, “Activation and solubilization of the retinal cGMP-specific phosphodiesterase by limited proteolysis”, Eur. J. Biochem., 1991, 199, 263-269; A. Tar et al. “Purification of bovine retinal cGMP phosphodiesterase”, Methods in Enzymology, 1994, 238, 3-12; and/or D. Srivastava et al. “Effects of magnesium on cyclic GMP hydrolysis by the bovine retinal rod cyclic GMP phosphodiesterase”, Biochem. J., 1995, 308, 653-658.
as §1, §2

Sequence of Human recombinant PDE4D (Q08499 1-673 isoform Q08499-2): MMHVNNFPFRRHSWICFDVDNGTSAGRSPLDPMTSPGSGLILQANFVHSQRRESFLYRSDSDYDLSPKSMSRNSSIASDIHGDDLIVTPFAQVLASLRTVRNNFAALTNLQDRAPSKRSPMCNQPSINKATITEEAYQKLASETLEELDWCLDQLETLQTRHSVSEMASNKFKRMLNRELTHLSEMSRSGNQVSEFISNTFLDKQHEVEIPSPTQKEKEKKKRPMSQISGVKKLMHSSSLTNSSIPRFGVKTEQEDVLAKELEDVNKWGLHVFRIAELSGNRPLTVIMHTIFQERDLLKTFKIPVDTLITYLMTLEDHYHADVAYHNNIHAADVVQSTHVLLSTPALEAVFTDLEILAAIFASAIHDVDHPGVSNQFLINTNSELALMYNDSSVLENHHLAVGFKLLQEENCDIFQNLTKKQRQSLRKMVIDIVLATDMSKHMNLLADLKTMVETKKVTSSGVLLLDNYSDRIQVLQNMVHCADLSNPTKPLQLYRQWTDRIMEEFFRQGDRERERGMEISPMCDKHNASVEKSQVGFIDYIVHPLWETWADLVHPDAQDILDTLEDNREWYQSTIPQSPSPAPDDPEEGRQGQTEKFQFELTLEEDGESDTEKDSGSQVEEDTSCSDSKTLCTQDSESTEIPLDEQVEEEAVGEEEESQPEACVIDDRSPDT
T1 sequence (Q07343 1-564 isoform Q07343-2): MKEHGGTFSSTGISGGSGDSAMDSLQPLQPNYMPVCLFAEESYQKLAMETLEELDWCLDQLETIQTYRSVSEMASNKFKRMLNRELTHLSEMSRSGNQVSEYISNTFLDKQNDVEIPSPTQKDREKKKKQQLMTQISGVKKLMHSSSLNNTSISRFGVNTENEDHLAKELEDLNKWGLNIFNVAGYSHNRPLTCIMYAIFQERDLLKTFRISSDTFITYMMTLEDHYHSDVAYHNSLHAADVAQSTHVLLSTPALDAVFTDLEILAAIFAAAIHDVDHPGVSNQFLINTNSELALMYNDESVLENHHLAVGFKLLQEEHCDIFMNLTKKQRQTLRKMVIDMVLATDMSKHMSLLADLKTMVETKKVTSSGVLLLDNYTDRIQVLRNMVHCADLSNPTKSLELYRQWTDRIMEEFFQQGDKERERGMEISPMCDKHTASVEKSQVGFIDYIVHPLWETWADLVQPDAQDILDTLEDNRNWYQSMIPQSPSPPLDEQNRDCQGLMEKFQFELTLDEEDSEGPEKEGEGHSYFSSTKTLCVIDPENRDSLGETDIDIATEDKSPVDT

As for `Cc1nc([S+](C)[O-])cc2c(Nc3cccc4c3CCO4)c(C(N)=O)cnc12` (racemic) [Example 3, (±)-4-(2,3-Dihydro-1-benzofuran-4-ylamino)-8-methyl-6-(methylsulfinyl)-1,7-naphthyridine-3-carboxamide], the IC50 was 0.398 nM on Human recombinant PDE4B, 0.631 nM at Human recombinant PDE4D, above 10000 nM on Human recombinant PDE5 and above 10000 nM on PDE6.
As for `CSc1cc2c(Nc3cccc4c3CCO4)c(C(N)=O)cnc2c(C)n1` [Example 1, 4-(2,3-Dihydro-1-benzofuran-4-ylamino)-8-methyl-6-(methylthio)-1,7-naphthyridine-3-carboxamide], the IC50 on Human recombinant PDE4B was 0.316 nM; on Human recombinant PDE4D, 0.316 nM; on Human recombinant PDE5, above 10000 nM; on PDE6, above 10000 nM.
`Cc1nc(S(C)(=O)=O)cc2c(Nc3cccc4c3CCO4)c(C(N)=O)cnc12` [Example 2, 4-(2,3-Dihydro-1-benzofuran-4-ylamino)-8-methyl-6-(methylsulfonyl)-1,7-naphthyridine-3-carboxamide]: the IC50 is 0.126 nM at Human recombinant PDE4B, 0.2 nM at Human recombinant PDE4D, above 10000 nM at Human recombinant PDE5 and above 10000 nM on PDE6.
